Measurements as given in patent US6949255B2, “Inhibitory chemical formulation with preservative system” (priority 2000, dated 2005).

How the values were obtained:
[1] = test system: vesicular stomatitis virus (VSV); type: cell-based
HIV = settings: among prostitutes; Kreiss et al., JAMA 1992; cited from earlier work
VSV = type: cell-based, vesicular stomatitis virus

Row | Molecule | inhibition of multiplication of VSV [1] | risk of HIV infection with use (HIV) | concentrations at which inhibitory activity was absent (VSV) | inhibition of VSV (VSV) | concentrations at which toxicity activity was absent (L-929 cells; mouse) | L-929 toxicity titer (L-929 cells; mouse) | killing of L-929 cells (L-929 cells) | killing of L-929 cells (toxicity titer) (L-929 cells; mouse)
1 | Nonoxynol-9 [Nonoxynol-9®] | almost identical degree of inhibition | increased risk of HIV infection |  |  |  |  |  | 
2 | OCC(O)CO [glycerol] |  |  | below 8% | greater than 10 fold | below 8% |  |  | 
3 | CCCOC(=O)c1ccc(O)cc1 [Proplyparaben, propylparaben] |  |  | < 0.004% | approximately 55 fold | < 0.004% | approximately 15 fold |  | 
4 | CC(O)CO (centres unmarked) [Propylene G, propylene glycol] |  |  |  | almost no inhibition |  |  | almost no inhibition or killing at all | 
5 | COC(=O)c1ccc(O)cc1 [Methylparaben] |  |  |  | approximately 30 fold | < 0.2% |  |  | greater than 300 fold
